Counter-ions that a name gives are not always drawn.
Key:
[1] = molecular target: T1, recombinant human liver glycogen phosphorylase (Homo sapiens, UniProt P06737); assay: Measuring liver glycogen phosphorylase activity (forward reaction system, NADPH absorbance at 340 nm); type: biochemical; details: enzyme inhibitory activity with respect to liver glycogen phosphorylase; class symbols
T1 construct: made in house; host or cells: Sf9 insect cells (crude homogenate, diluted, used as the enzyme solution)
T1 sequence (P06737 1-847): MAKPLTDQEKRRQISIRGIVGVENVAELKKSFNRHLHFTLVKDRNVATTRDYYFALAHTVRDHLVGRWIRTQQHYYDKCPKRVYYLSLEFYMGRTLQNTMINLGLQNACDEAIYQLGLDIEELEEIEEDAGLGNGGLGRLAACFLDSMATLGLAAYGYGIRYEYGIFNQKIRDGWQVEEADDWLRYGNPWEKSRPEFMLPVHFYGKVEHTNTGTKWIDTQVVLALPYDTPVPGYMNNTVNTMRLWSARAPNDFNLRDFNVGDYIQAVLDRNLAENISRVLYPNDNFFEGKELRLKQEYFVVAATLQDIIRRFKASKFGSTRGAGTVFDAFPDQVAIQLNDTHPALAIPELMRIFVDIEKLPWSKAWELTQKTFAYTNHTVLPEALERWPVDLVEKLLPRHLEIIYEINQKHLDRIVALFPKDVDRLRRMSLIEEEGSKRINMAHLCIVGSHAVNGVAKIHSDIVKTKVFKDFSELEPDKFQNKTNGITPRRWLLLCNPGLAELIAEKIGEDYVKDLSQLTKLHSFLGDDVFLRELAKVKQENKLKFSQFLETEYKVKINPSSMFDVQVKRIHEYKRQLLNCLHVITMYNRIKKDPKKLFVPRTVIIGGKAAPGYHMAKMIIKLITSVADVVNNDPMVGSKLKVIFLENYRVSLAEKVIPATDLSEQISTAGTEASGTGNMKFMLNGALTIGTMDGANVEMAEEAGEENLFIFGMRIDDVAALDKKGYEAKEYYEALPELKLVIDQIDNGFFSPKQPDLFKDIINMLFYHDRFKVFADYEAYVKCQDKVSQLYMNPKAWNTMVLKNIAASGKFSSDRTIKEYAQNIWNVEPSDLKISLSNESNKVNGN
How it was run: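 Compounds in 1% DMSO; activity taken as blank-subtracted 340 nm absorbance change across 75 min at room temperature. Forward reaction: glucose-1-phosphate released from glycogen converted by coupling enzymes, yielding NADPH; enzyme from recombinant Sf9 homogenate, reaction containing glucose, pH 6.8. IC50 from two-point linear interpolation.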

db/db mice = assay: Measuring blood plasma glucose concentration in db/db mice (hypoglycemic effect); type: in vivo; design: key: ++: compounds exhibiting statistically significant hypoglycemic effect at a dose of 10 mg/kg or less; +: compounds exhibiting not significant but obvious hypoglycemic effect at a dose of 10 mg/kg; details: db/db mice fasted 4 h, oral administration, plasma glucose 1 and 3 hours after administration, dose 10 mg/kg or less, Dunnett test vs solvent
Procedure: 2. Exemplary Test (2) Method for Measuring Blood Plasma Glucose Concentration
Using db/db mice representing an obesity type of diabetic model were used to examine the effect of compound (1) of the present invention on glucose concentrations in plasma. Plasma glucose concentrations of the db/db mice (9-18 weeks old) were measured, and the mice were divided into groups each of 5 or 8 mice such that there would be no difference in the average value of plasma glucose concentrations. After fasting for four hours, the example compound or the solvent (0.5% methylcellulose) was administered orally to the db/db mice, and plasma glucose concentrations were measured 1 and 3 hours after administration. The analysis of the hypoglycemic effect of the example compound was performed through a statistical test at every hour between the group receiving the solvent and the groups of example compound (Dunnett test).

Row | SMILES | IC50 [1] [nM] | vivo (hypoglycemic effect in db/db mice) (db/db mice) | vivo (hypoglycemic effect in db/db mice) (db/db mice; 10 mg/kg)
1 | CCCN(Cc1cccnc1)C(=O)c1cc(NC(=O)c2cc(F)c(F)cc2Cl)[nH]n1 [Example 1-117] | < 100 | + | 
2 | CCCN(C(=O)c1cc(NC(=O)c2cc(F)c(F)cc2Cl)[nH]n1)C1CCN(C(=O)C(=O)O)CC1 [Example 1-123] | < 100 | + | 
3 | COc1ccc(CN(C(=O)c2cc(NC(=O)c3cc(F)c(F)cc3Cl)[nH]n2)C2CC2)cn1 [Example 1-126] | < 100 | + | 
4 | COc1ccc(CN(C(=O)c2cc(NC(=O)c3cc(F)c(F)cc3Cl)[nH]n2)C2CCC2)cn1 [Example 1-127] | < 100 | + | 
5 | COc1ccc(CN(CC2CC2)C(=O)c2cc(NC(=O)c3cc(F)c(F)cc3Cl)[nH]n2)cn1 [Example 1-128] | < 100 | + | 
6 | CN(C)c1ccc(CNC(=O)c2cc(NC(=O)c3cc(F)c(F)cc3Cl)[nH]n2)cn1 [Example 1-129] | < 100 |  | +
7 | CCCN(Cc1ccc(N(C)C)nc1)C(=O)c1cc(NC(=O)c2cc(F)c(F)cc2Cl)[nH]n1 [Example 1-130] | < 100 | + | 
8 | CCCN(Cc1ccc(Cl)nc1)C(=O)c1cc(NC(=O)c2cc(F)c(F)cc2Cl)[nH]n1 [Example 1-133] | < 100 | + | 
9 | O=C(NCc1c(Cl)cccc1Cl)c1cc(NC(=O)c2cc(F)c(F)cc2Cl)[nH]n1 [Example 1-134] | < 100 | + | 
10 | O=C(NCc1c(Cl)cncc1Cl)c1cc(NC(=O)c2cc(F)c(F)cc2Cl)[nH]n1 [Example 1-135] | < 100 | + | 
11 | CCCN(Cc1c(Cl)cncc1Cl)C(=O)c1cc(NC(=O)c2cc(F)c(F)cc2Cl)[nH]n1 [Example 1-136] | < 100 | + | 
12 | O=C(NCc1ccc(-n2cccn2)nc1)c1cc(NC(=O)c2cc(F)c(F)cc2Cl)[nH]n1 [Example 1-137] | < 100 | + | 
13 | O=C(NCc1ccc(N2CCC(O)CC2)nc1)c1cc(NC(=O)c2cc(F)c(F)cc2Cl)[nH]n1 [Example 1-138] | < 100 | + | 
14 | Cc1cc(C)c(CNC(=O)c2cc(NC(=O)c3cc(F)c(F)cc3Cl)[nH]n2)cn1 [Example 2-4-1, 5-(2-chloro-4,5-difluoro-benzoylamino)-1H-pyrazole-3-carboxylic acid (4,6-dimethyl-pyridin-3-ylmethyl)-amide dihydrochloride] | < 100 | ++ | 
15 | COc1nc(C)ccc1CNC(=O)c1cc(NC(=O)c2cc(F)c(F)cc2Cl)[nH]n1 [Example 2-5, 5-(2-chloro-4,5-difluoro-benzoylamino)-1H-pyrazole-3-carboxylic acid (2-methoxy-6-methyl-pyridin-3-ylmethyl)-amide] | < 100 | ++ | 
16 | COc1cc(C)ncc1CNC(=O)c1cc(NC(=O)c2cc(F)c(F)cc2Cl)[nH]n1 [Example 2-6, 5-(2-chloro-4,5-difluoro-benzoylamino)-1H-pyrazole-3-carboxylic acid (4-methoxy-6-methyl-pyridin-3-ylmethyl)-amide] | < 100 | ++ | 
17 | COc1nc(C)cc(C)c1CNC(=O)c1cc(NC(=O)c2cc(F)c(F)cc2Cl)[nH]n1 [Example 2-7-1, 5-(2-chloro-4,5-difluoro-benzoylamino)-1H-pyrazole-3-carboxylic acid (2-methoxy-4,6-dimethyl-pyridin-3-ylmethyl)-amide dihydrochloride] | < 100 | ++ | 
18 | Cc1cccnc1CNC(=O)c1cc(NC(=O)c2cc(F)c(F)cc2Cl)[nH]n1 [Example 2-8] | < 100 | + | 
19 | Cc1ccnc(CNC(=O)c2cc(NC(=O)c3cc(F)c(F)cc3Cl)[nH]n2)c1 [Example 2-9] | < 100 | + | 
20 | Cc1ccc(CNC(=O)c2cc(NC(=O)c3cc(F)c(F)cc3Cl)[nH]n2)nc1 [Example 2-10] | < 100 | + | 

Row | SMILES | IC50 [1] [nM] | vivo (hypoglycemic effect in db/db mice) (db/db mice) | vivo (hypoglycemic effect in db/db mice) (db/db mice; 10 mg/kg)
21 | Cc1cccc(CNC(=O)c2cc(NC(=O)c3cc(F)c(F)cc3Cl)[nH]n2)n1 [Example 2-11] | < 100 | + | 
22 | O=C(NCc1ccc(F)nc1)c1cc(NC(=O)c2cc(F)c(F)cc2Cl)[nH]n1 [Example 2-13] | < 100 | + | 
23 | CS(=O)(=O)Nc1cccc(CNC(=O)c2cc(NC(=O)c3cc(F)c(F)cc3Cl)[nH]n2)c1 [Example 2-15] | < 100 | + | 
24 | O=C(NCc1ccc(Cl)nc1)c1cc(NC(=O)c2cc(F)c(F)cc2Cl)[nH]n1 [Example 2-23] | < 100 | + | 
25 | O=C(NCc1cccnc1Cl)c1cc(NC(=O)c2cc(F)c(F)cc2Cl)[nH]n1 [Example 2-24] | < 100 | + | 
26 | O=C(NCc1cccnc1F)c1cc(NC(=O)c2cc(F)c(F)cc2Cl)[nH]n1 [Example 2-27] | < 100 | + | 
27 | Cc1ncccc1CNC(=O)c1cc(NC(=O)c2cc(F)c(F)cc2Cl)[nH]n1 [Example 2-28] | < 100 | + | 
28 | O=C(NCc1ccccc1)c1cc(NC(=O)c2cc(F)c(F)cc2Cl)[nH]n1 [Example 3-2, 5-(2-chloro-4,5-difluoro-benzoylamino)-1H-pyrazole-3-carboxylic acid benzylamide] | 100 to 300 | + | 
29 | CN(C(=O)c1cc(NC(=O)c2cc(F)c(F)cc2Cl)[nH]n1)c1ccccc1 [Example 3-4] | 100 to 300 | + | 
30 | CCN(C(=O)c1cc(NC(=O)c2cc(F)c(F)cc2Cl)[nH]n1)c1ccccc1 [Example 3-11] | < 100 | + | 
31 | Cl.O=C(NCc1ccccn1)c1cc(NC(=O)c2cc(F)c(F)cc2Cl)[nH]n1 [Example 3-20] | < 100 | + | 
32 | Cl.O=C(NCc1ccncc1)c1cc(NC(=O)c2cc(F)c(F)cc2Cl)[nH]n1 [Example 3-21] | < 100 | ++ | 
33 | CN(C)c1ccc(CNC(=O)c2cc(NC(=O)c3cc(F)c(F)cc3Cl)[nH]n2)cc1 [Example 3-24] | < 100 | + | 
34 | O=C(NCc1ccco1)c1cc(NC(=O)c2cc(F)c(F)cc2Cl)[nH]n1 [Example 3-25] | < 100 | + | 
35 | O=C(NCc1cccs1)c1cc(NC(=O)c2cc(F)c(F)cc2Cl)[nH]n1 [Example 3-26] | < 100 | + | 
36 | Nc1ccc(CNC(=O)c2cc(NC(=O)c3cc(F)c(F)cc3Cl)[nH]n2)cc1 [Example 3-31] | < 100 | + | 
37 | Cc1ccccc1CNC(=O)c1cc(NC(=O)c2cc(F)c(F)cc2Cl)[nH]n1 [Example 3-32] | < 100 | + | 
38 | Cc1cccc(CNC(=O)c2cc(NC(=O)c3cc(F)c(F)cc3Cl)[nH]n2)c1 [Example 3-33] | < 100 | + | 
39 | COc1ncccc1CNC(=O)c1cc(NC(=O)c2cc(F)c(F)cc2Cl)[nH]n1 [Example 3-35] | < 100 | ++ | 
40 | COC(=O)c1cccc(CNC(=O)c2cc(NC(=O)c3cc(F)c(F)cc3Cl)[nH]n2)c1 [Example 3-38] | < 100 | + | 

Reference: patent US20070032529A1, “Pyrazole compounds and their use as antidiabetes agents” (Japan Tobacco Inc., priority 2005, published 2007)
